Experimental data taken from patent US5162361A, “Method of treating diseases associated with elevated levels of interleukin 1” (priority 1990, dated 1992).
“Also recorded” adds a separate entry of the source.

Assays:
[1] = test system: Female B6C3F1 mice; test: Endotoxemia: hypothermia and survival after LPS; type: in vivo
Description: Female B6C3F1 mice weighing approximately 24 g were dosed with pentamidine (15 mg/kg.; i.v.) at both 24 hours and 1 hour prior to LPS administration (50 mg/kg; i.p.). Temperature response indices (TRI) were determined for the period between time zero and +12 hours in groups of 5 mice. […] Animals used for body temperature measurements were treated identically and on the same day as those animals for which survival was measured, although the survival of these animals is not included in the Table below. Survival data shown in Table 3 is following 24 hours of observation.

[2] = test system: IL-1α; test: Western blot analysis of secreted protein (IL-1α); type: cell-based, rat; settings: LPS, FIG. 1b
[3] = test system: IL-1; test: IL-1 release from alveolar macrophages (thymocyte co-stimulation bioassay); type: cell-based, rat; settings: 24 h after LPS (5 ng/ml), FIG. 1a
Description: Pulmonary alveolar macrophages were collected by lavaging the lungs as previously described (D. B. Warheit et al., Am. Rev. Resp. Dis. 134, 128 (1986)). Once washed and resuspended, the macrophages were allowed to adhere to plastic plates in serum free RPMI 1640 containing 25 mM Hepes, 2 mM L-glutamine, 50 μg/ml gentamicin and streptomycin (media). Following adherence for 1 hour at 37° C. in 5% CO2, the plates were washed once with warm media to remove nonadherent cells, cells were resuspended in media with 10% FCS and treated with or without pentamidine at the indicated concentration and LPS (5 ng/ml) for 24 hours). IL-1 activity was assayed using a thymocyte co-stimulation assay (S. B. Mizel in Methods in Macrophage Biology, Editors, Herscowitz and Holden (1981)). Single cell thymocyte suspension from B6C3F1 mice (female, 5-9 weeks old) at a concentration of 2.0×10^7 /ml in media containing 10% FCS, and 2.5×10^-5 M 2-β mercaptoethanol were added in 50 μl aliquots to each well of flat bottom microtiter plates along with 50 μl of PHA at 2.5 μg/ml. Serial dilution of supernatants or cells were made in media with 10% FCS and added in 100 μl aliquots. IL-1 activity was measured by quantifying the uptake of 3Hthymidine during the last 6 hours of a 72 hour culture at 37° C. and 5% CO2. Cells were harvested onto glass fiber filters and filter associated radioactivity counted in a scintillation counter.
In vitro studies were performed by taking alveolar macrophages from normal healthy rat lungs and culturing them in the presence of an imidazoline with the inducer lipopolysaccharide for 24 hours. The standard bioassay for IL-1 was performed (see above).

[4] = test system: IL-1α; test: Western blot analysis of cell associated IL-1α; type: cell-based, rat; settings: 10 μM pentamidine, LPS, 24 h, FIG. 3
Description: To determine the effect of pentamidine on cellular stores of IL-1, intracellular levels of IL-1 were quantitated by incubating cells with and without 10 μM pentamidine and LPS for 24 hours. At the end of this incubation period, the cells were washed, lysed and the total cellular protein was collected for Western blot analysis. […] This is in agreement with the generally accepted existence of a precursor form of IL-1 with a molecular weight in the range of 31-33 kD (J. Giri et al., J. Immunol. 134, 343 (1985)).
Cells (4×10^6 cells) were oultured with pentamidine (10μM) or dexamethasone (1μM) in media with 10% fetal calf serum (FCS) in the presence or absence of LPS (1 μg/ml) for 24 hours. The cells were washed twice in HBSS and then scraped in homogenizing buffer (HBSS containing 0.1 mM EGTA, 1 mM pmsf, 10 μg/ml leupeptin, 1 KIU/ml aprotinin, pH 7.4). The cell suspension was left on ice for 10 minutes at which time the swollen cells were disrupted by sonication. The nuclei and undisrupted cells were pelleted by centrifugation at 800 rpm for 10 minutes and were discarded. The supernatant was centrifugated at 39,000 rpm for 1 hour at 4° C. After centrifugation, the supernatants containing cytosolic components of the cell was carefully removed and was used as the cytosol fraction. […] Molecular weight references were determined by running one lane with pre-stained molecular weight standards.

[5] = test system: tumor necrosis factor; test: Tumor necrosis factor secretion by human macrophages; type: cell-based; settings: Macrophage, 10^-5 M, read-out: Suppression of tumor necrosis factor secretion
Source text: It has also been observed that pentamidine (10^-5 M) blocks the secretion of tumor necrosis factor in rat macrophages (42 units/ml - pentamidine vs. 82 units/ml - control), as well as tumor necrosis factor and IL-6 in human macrophages, where at a concentration of 10^-5 M pentamidine, tumor necrosis factor and IL-6 secretion are suppressed >50%. These additional cytokines are also very influential mediators in inflammatory diseases.

[6] = test system: Pulmonary alveolar macrophages; test: Phagocytosis by pulmonary alveolar macrophages (Fluoresbrite beads, flow cytometry); type: cell-based, rat
Description: One ml aliquots were added to sterile teflon vials (Nalgene) along with pentamidine or dexamethasone (Sigma) as indicated, and incubated for 4 hours at 37° C., 5% CO2. Fluoresbrite carboxylate beads, 1.73 μm (Polysciences) were used to achieve a 100:1 bead to cell ratio and the suspension was incubated for 45 minutes at 37° C., 5% CO2 with gentle agitation. Cell suspensions were then layered over 3 mls. of RPMI/FCS+0.3% BSA, and cells pelleted at 150 xg for 10 minutes. Supernates were discarded and cells resuspended in 1 ml of RPMI/FCS for analysis via flow cytometry. The data presented above is the mean of the percentage of cells taking up one or more beads of triplicate cultures.

**Q.** What does the source list for `N=C(N)c1ccc(OCCCCCOc2ccc(C(=N)N)cc2)cc1` [Pentamidine, 1,5-bis(4-amidinophenoxy)pentane]?
**A.** Temperature response index (TRI) ([1]; 15 mg/kg i.v. 24 h and 1 h prior to LPS 50 mg/kg i.p. (LPS alone -13.3), P < 0.01): -8.3 Δ°C; Survival ([1]; 15 mg/kg i.v. + LPS, 24 hours of observation (LPS alone 0/10), P < 0.01): 10/10; Mean rectal temperature at 12 hours (Tr12hr) ([1]; 15 mg/kg i.v. + LPS, ± SE (LPS alone 25.3 ± 0.5), P < 0.01): 29.0 ± 2.2 °C; Mean rectal temperature at time zero (Tr0) ([1]; 15 mg/kg i.v. + LPS, ± SE (LPS alone 38.6 ± 0.4)): 37.3 ± 0.4 °C; Temperature response index (TRI) ([1]; 15 mg/kg i.v. at 24 h and 1 h, no LPS (vehicle -1.3)): -2.4 Δ°C; Survival ([1]; 15 mg/kg i.v., no LPS, 24 hours of observation (vehicle 10/10)): 9/9; Mean rectal temperature at 12 hours (Tr12hr) ([1]; 15 mg/kg i.v., no LPS, ± SE (vehicle 36.9 ± 1.4)): 35.0 ± 2.9 °C; Mean rectal temperature at time zero (Tr0) ([1]; 15 mg/kg i.v., no LPS, ± SE (vehicle 38.2 ± 0.1)): 37.4 ± 0.6 °C; Secreted IL-1 by Western blot [2]: nearly complete block in the release of the intracellular IL-1; also recorded: lack of a lipopolysaccharide inducible IL-1 band; IL-1 release [3]: decreased in a concentration dependant manner; also recorded: decreased in a concentration dependent manner; Cell associated IL-1α (Western blot) [4]: allows proper translation of the protein; also recorded: antiserum to murine IL-1α bound to a protein that migrated to approximately 31 kD; inhibition at 10 µM [5]: > 50%; Phagocytic Index ([6]; Pentamidine 10^-5 M (control 32)): 32%; Phagocytic capacity of alveolar macrophages ([6]; result in words): did not modulate the phagocytic capacity of alveolar macrophages
